# Measurements taken from patent publication US11534283B2 (priority 2017, dated 2022).
# Entries after “also recorded” stand apart in the source; their conditions may differ.
# How the values were obtained:
# [1] = system: cells labeled adjacent the implantation site in the adult mouse cortex; type: cell-based
# Description: Implantable devices were filled with α-bungarotoxin fused to the dye Alexa Fluor 555 (α-BTX Alexa 555) in PBS at a concentration of 0.3 mg/mL. Animals were treated with the implantable device for 2 hours prior to sacrifice. Tissues were prepared for live cell electrophysiology assays (patch clamp) and fluorescence imaging.
# Implantable devices filled with fluorescently labeled α-bungarotoxin (α-BTX) were implanted and the release was studied via imaging and live cell electrophysiology assays.
# adult mouse cortex = conditions: in vivo
compound,measurement,setting,value
O=C1NCC2(CN3CCC2CC3)O1 (stereo not shown) [AR-R17779],electrophysiological activity of agonist AR-R17779 in the control group,"[1]; cells labeled with control (Alexa 555) released from the device, patch clamp",inhibitory activity
α-bungarotoxin [α-BTX-Alexa 555],labeling of individual cells (uptake),adult mouse cortex,individual cells were clearly labeled; also recorded: labeling individual cells
same,localization of fluorescence after release from the implantable device,adult mouse cortex,local to the implantation site; also recorded: adjacent the implantation site
same,electrophysiological response of the α-BTX labeled cell to agonist AR-R17779,[1],no activity
